According to PMC10672332, “Lecanicilliums A–F, Thiodiketopiperazine-Class Alkaloids from a Mangrove Sediment-Derived Fungus Lecanicillium kalimantanense” (Marine Drugs, 2023):
Values after ≈ are worked out from the molar mass of the structure shown. Read-outs that look alike come from different tables or passages of the source.

How the values were obtained:
[1] = tested on: Escherichia coli ATCC 25922; experiment: Antibacterial assay, micro broth dilution; assay type: cell-based; settings: ATCC25922, micro broth dilution, LB medium, 24 hours at 37 °C, read-out: Antibacterial Activity (MIC) E. coli
Experimental: (§1) The micro broth dilution method was used to evaluate the antibacterial activities of compounds 1–19 against the growth of eight common pathogens: Bacillus subtilis BS01, Micrococcus luteus, Escherichia coli ATCC 25922, Staphylococcus aureus ATCC 6538, S. aureus MRSA, Streptococcus agalactiae ATCC 13813, S. iniae, and Pseudomonas aeruginosa ATCC 9027 in 96-well polystyrene plates. Vancomycin and ciprofloxacin were used as positive controls. Briefly, wells containing 100 μL bacteria dilutions (OD600 = 0.01) in Luria–Bertani (LB) medium were supplemented with different concentrations of 1–19 (80, 40, 20, 10, 5, 2.5, 1.25, and 0.625 μg/mL), vancomycin, and ciprofloxacin (40, 20, 10, 5, 2.5, 1.25, 0.625, and 0.3125 μg/mL), respectively. The MICs were determined after 24 hours’ incubation at 37 °C with the tested compounds.

[2] = tested on: Bacillus subtilis BS01; experiment: Antibacterial assay, micro broth dilution; assay type: cell-based; settings: BS01, micro broth dilution, LB medium, 24 hours at 37 °C, read-out: Antibacterial Activity (MIC) B. subtilis
Experimental: as §1

[3] = tested on: Pseudomonas aeruginosa ATCC 9027; experiment: Antibacterial assay, micro broth dilution; assay type: cell-based; settings: ATCC9027, micro broth dilution, LB medium, 24 hours at 37 °C, read-out: Antibacterial Activity (MIC) P. aeruginosa
Experimental: as §1

[4] = tested on: Streptococcus agalactiae ATCC 13813; experiment: Antibacterial assay, micro broth dilution; assay type: cell-based; settings: ATCC13813, micro broth dilution, LB medium, 24 hours at 37 °C, read-out: Antibacterial Activity (MIC) S. agalactiae
Experimental: as §1

[5] = tested on: Staphylococcus aureus ATCC 6538; experiment: Antibacterial assay, micro broth dilution; assay type: cell-based; settings: ATCC6538, micro broth dilution, LB medium, 24 hours at 37 °C, read-out: Antibacterial Activity (MIC) S. aureus
Experimental: as §1

[6] = tested on: S. iniae; experiment: Antibacterial assay, micro broth dilution; assay type: cell-based; settings: Streptococcus iniae; micro broth dilution, LB medium, 24 hours at 37 °C; read-out: Antibacterial Activity (MIC) S. iniae
Experimental: as §1

[7] = tested on: brine shrimps; experiment: Brine shrimp lethality bioassay; assay type: in vivo; settings: Table 3
Excerpt: The methods were the same as those used in our previous studies.

[8] = tested on: Micrococcus luteus; experiment: Antibacterial assay, micro broth dilution; assay type: cell-based; settings: micro broth dilution, LB medium, 24 hours at 37 °C, read-out: Antibacterial Activity (MIC) M. luteus
Experimental: as §1

[9] = tested on: S. aureus MRSA; experiment: Antibacterial assay, micro broth dilution; assay type: cell-based; settings: Staphylococcus aureus, micro broth dilution, LB medium, 24 hours at 37 °C, read-out: Antibacterial Activity (MIC) MRSA
Experimental: as §1

[10] = Cytotoxicity, CCK-8 method; assay type: cell-based; settings: human
Experimental: (§2) Cytotoxic activity was evaluated using the human lung adenocarcinoma cell line H1975 and human hepatocellular carcinoma cell line HepG-2, using the CCK-8 method as described in our previous study. Briefly, each of the test compounds was dissolved in DMSO and further diluted to give final concentrations of 80, 40, 20, 10, 5, 2.5, and 1.25 μM, respectively. H1975 cells or HepG-2 cells (5 × 10^3 […]) were seeded in 96-well plates and treated with compounds at the indicated concentration for 24 hours and then 10 μL CCK-8 reagent was added to each well. The plates were incubated at 37 °C for another 4 hours. Finally, the optical density was measured at a wavelength of 450 nm with a Bio-Rad microplate reader. Dose–response curves were generated, and the IC50 values were calculated from the linear portion of log dose–response curves.

[11] = Cytotoxicity, CCK-8 method; assay type: cell-based; settings: human; remark: listed apart in the source
Experimental: as §2

[12] = H1975 cells (lung adenocarcinoma cell line), H1975 cells, CCK-8, 24 hours treatment, read-out: Cytotoxicity (IC50) against H1975
[13] = HepG-2 cells (hepatocellular carcinoma cell line), HepG-2 cells, CCK-8, 24 hours treatment, read-out: Cytotoxicity (IC50) against HepG-2

Structure (SMILES) | MIC [1] | MIC [2] | MIC [3] | MIC [4] | MIC [5] | MIC [6] | Toxicity (TC50) Brine Shrimp [7] | MIC [8] | MIC [9] | IC50 at 24 h [10] | IC50 at 24 h [11] | IC50 at 24 h [10, 12] | IC50 at 24 h [11, 13]
O=C(O)c1cn(C2CC2)c2cc(N3CCNCC3)c(F)cc2c1=O [CFN, Ciprofloxacin, reference compound] | 0.6 mg/L (≈ 1.81 µM) | 0.6 mg/L (≈ 1.81 µM) | 0.6 mg/L (≈ 1.81 µM) | 5 mg/L (≈ 15.1 µM) | 0.6 mg/L (≈ 1.81 µM) | 2.5 mg/L (≈ 7.54 µM) |  |  |  |  |  |  | 
O=C1N2C3OC=CC4SC2(CC3C4O)C(=O)NC12Cc1ccccc1O2 (stereo not drawn) [Compound 1, Lecanicillium A] | > 80 mg/L | 60 mg/L (≈ 161 µM) | > 80 mg/L | > 80 mg/L | > 80 mg/L | > 80 mg/L | >80 mg/L | > 80 mg/L | > 80 mg/L |  |  |  | 
CSC12CC3=COC=CC(O)C3N1C(=O)C1(Cc3ccccc3O1)NC2=O (stereo not drawn) [Compound 2, Lecanicillium B] | > 80 mg/L | 80 mg/L (≈ 207 µM) | > 80 mg/L | > 80 mg/L | > 80 mg/L | 70 mg/L (≈ 181 µM) | >80 mg/L | 60 mg/L (≈ 155 µM) | > 80 mg/L | > 80 µM | > 80 µM |  | 
CSC12CC3=COC=CC(OC(C)=O)C3N1C(=O)C1(SC)CC34OC3C3OC3C(OC(C)=O)C4N1C2=O (stereo not drawn) [Compound 3, Lecanicillium C] | > 80 mg/L | > 80 mg/L | > 80 mg/L | > 80 mg/L | > 80 mg/L | > 80 mg/L | >80 mg/L | > 80 mg/L | > 80 mg/L | > 80 µM | > 80 µM |  | 
CSC12CC3=COC=CC(OC(C)=O)C3N1C(=O)C1(SC)CC3(O)C=CC(=O)C(OC(C)=O)C3N1C2=O (stereo not drawn) [Compound 4, Lecanicillium D] | > 80 mg/L | 50 mg/L (≈ 90.8 µM) | > 80 mg/L | > 80 mg/L | > 80 mg/L | 40 mg/L (≈ 72.6 µM) | 80 mg/L | > 80 mg/L | > 80 mg/L | 71.5 µM | > 80 µM |  | 
CS[C@@]1(Cc2ccccc2)NC(=O)[C@H](Cc2ccccc2)NC1=O [Compound 6, Lecanicillium F] | > 80 mg/L | > 80 mg/L | > 80 mg/L | > 80 mg/L | > 80 mg/L | > 80 mg/L |  | > 80 mg/L | > 80 mg/L |  |  | > 80 µM | > 80 µM
CS[C@@]1(Cc2ccccc2)NC(=O)[C@@](Cc2ccccc2)(SC)NC1=O [Compound 7, emethacin B] | > 80 mg/L | > 80 mg/L | > 80 mg/L | > 80 mg/L | > 80 mg/L | > 80 mg/L |  | > 80 mg/L | > 80 mg/L |  |  | 16.9 µM | > 80 µM
CS[C@@]12CC3=COC=C[C@H](OC(C)=O)[C@H]3N1C(=O)[C@]1(SC)CC3=COC=C[C@H](OC(C)=O)[C@H]3N1C2=O [Compound 8, bisdethiobis(methylsulfanyl)acetylaranotin] | > 80 mg/L | > 80 mg/L | > 80 mg/L | > 80 mg/L | > 80 mg/L | > 80 mg/L |  | > 80 mg/L | > 80 mg/L | > 80 µM | > 80 µM |  | 
